Measured values as given in patent publication US20240150377A1, “MODULATORS OF CYSTIC FIBROSIS TRANSMEMBRANE CONDUCTANCE REGULATOR” (VERTEX PHARMACEUTICALS INCORPORATED, priority 2020, published 2024).
Read-outs that look alike come from different tables or passages of the source.

Target: T1, CFTR (Homo sapiens, UniProt P13569, DEL508-508)
T1 construct: endogenous in cells; host or cells: primary human bronchial epithelial cells from CF subjects (F508del/MF-HBE), differentiated at air-liquid interface
Test: HBE assay: Ussing chamber assay of CFTR-mediated short-circuit currents
Format: cell-based
Conditions: for EC50: read-out: HBE EC50; for Emax: read-out: HBE Max Activity (%); for activation at 10 µM: read-out: HBE Activity at 10 μM (%)
Procedure, shortened: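 CFTR-mediated Isc (μA/cm²) equals the peak response to apical 20 μM forskolin minus the residual after a 20 μM each BPO/GlyH-101/CFTR inhibitor 172 cocktail, recorded in Ussing chambers at Vhold 0 mV, 37 °C, pH 7.4, with 30 μM apical amiloride. Cells were F508del/MF HBE cultures preincubated 18-24 h with corrector (concentration range or 10 μM) plus 1 μM ivacaftor in 20% human serum.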

T1 sequence (P13569 with tags, fused parts or gaps DEL508-508): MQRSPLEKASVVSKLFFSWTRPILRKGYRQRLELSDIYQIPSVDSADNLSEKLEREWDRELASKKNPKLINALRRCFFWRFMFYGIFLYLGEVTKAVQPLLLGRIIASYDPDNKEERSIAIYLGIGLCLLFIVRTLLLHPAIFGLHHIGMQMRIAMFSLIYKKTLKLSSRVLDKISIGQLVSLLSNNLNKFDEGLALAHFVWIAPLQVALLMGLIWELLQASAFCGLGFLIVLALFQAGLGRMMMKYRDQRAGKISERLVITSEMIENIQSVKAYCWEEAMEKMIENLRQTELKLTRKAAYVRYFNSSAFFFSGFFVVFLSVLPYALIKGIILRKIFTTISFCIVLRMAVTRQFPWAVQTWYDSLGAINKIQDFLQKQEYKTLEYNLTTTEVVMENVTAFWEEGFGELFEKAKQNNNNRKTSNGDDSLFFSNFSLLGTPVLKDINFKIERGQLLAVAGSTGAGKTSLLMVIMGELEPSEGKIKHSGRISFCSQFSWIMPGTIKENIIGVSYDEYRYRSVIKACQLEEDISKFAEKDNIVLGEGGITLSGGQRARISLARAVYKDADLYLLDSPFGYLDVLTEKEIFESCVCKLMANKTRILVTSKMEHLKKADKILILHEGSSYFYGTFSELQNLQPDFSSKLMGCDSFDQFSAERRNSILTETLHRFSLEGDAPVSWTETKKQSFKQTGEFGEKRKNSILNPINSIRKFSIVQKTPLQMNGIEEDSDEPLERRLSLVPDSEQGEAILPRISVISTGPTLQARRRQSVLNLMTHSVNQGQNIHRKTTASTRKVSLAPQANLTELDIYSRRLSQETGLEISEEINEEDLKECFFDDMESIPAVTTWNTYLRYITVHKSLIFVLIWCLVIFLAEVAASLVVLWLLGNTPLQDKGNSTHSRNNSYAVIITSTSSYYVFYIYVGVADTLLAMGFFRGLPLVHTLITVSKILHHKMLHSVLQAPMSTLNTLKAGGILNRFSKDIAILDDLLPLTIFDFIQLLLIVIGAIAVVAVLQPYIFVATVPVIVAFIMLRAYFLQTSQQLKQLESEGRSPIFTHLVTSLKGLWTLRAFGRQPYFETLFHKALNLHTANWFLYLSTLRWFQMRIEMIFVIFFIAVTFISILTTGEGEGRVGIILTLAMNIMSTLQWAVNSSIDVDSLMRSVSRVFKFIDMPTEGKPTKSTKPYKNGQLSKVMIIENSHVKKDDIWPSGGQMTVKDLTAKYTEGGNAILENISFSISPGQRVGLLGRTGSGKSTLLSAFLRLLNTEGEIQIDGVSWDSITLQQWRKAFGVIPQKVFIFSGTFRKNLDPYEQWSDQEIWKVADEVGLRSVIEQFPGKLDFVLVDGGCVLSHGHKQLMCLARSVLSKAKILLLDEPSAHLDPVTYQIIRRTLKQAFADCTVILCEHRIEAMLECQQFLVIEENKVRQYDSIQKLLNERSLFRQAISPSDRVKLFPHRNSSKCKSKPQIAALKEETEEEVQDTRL

With `Cc1cccc(C)c1-c1cc2nc(n1)NS(=O)(=O)c1cccc(c1)C(=O)N(Cc1ncc(N3CC4CCC3C4)cn1)[C@H](CC(C)(C)C)CO2` (some centres unmarked) [Compound 874] as the compound, how does the EC50 (Table 12) read?
The EC50 was under 1 µM.

And the Emax (Table 12)?
The Emax was over 60%.

How did the EC50 (Table 12) turn out when `Cc1cccc(C)c1-c1cc2nc(n1)NS(=O)(=O)c1cccc(c1)C(=O)N(Cc1ncc(N3CCC(C(C)(C)C)C3)cn1)[C@H](CC(C)(C)C)CO2` (some centres unmarked) [Compound 875] was run?
The EC50 was under 1 µM.

What about the Emax (Table 12) of the same compound?
Its Emax is over 60%.

With `COC1CN(c2cccc(CN3C(=O)c4cccc(c4)S(=O)(=O)Nc4nc(cc(-c5c(C)cccc5C)n4)OC[C@H]3CC(C)(C)C)n2)C(C)(C)C1` (some centres unmarked) [Compound 876] as the compound, how does the EC50 (Table 12) read?
Its EC50 is under 1 µM.

What about the Emax (Table 12) of the same compound?
Its Emax is over 60%.

How did the activation at 10 µM (Table 12) turn out when `Cc1cccc(C)c1-c1cc2nc(n1)NS(=O)(=O)c1cccc(c1)C(=O)N(Cc1cccc(N3CC(C(C)(C)C)CC3(C)C)n1)[C@H](CC(C)(C)C)CO2` (some centres unmarked) [Compound 877] was run?
Its activation at 10 µM is over 600%.

For `Cc1cccc(C)c1-c1cc2nc(n1)NS(=O)(=O)c1cccc(c1)C(=O)N(Cc1cccc3ccnn13)[C@H](CC(C)(C)C)CO2` [Compound 878], which activation at 10 µM (Table 12) is on record?
The activation at 10 µM was over 600%.

How did the activation at 10 µM (Table 12) turn out when `Cc1cccc(C)c1-c1cc2nc(n1)NS(=O)(=O)c1cccc(c1)C(=O)N(Cc1cnc3ccccn13)[C@H](CC(C)(C)C)CO2` [Compound 879] was run?
Its activation at 10 µM is over 600%.

Which activation at 10 µM (Table 12) does the source give for `Cc1cccc(C)c1-c1cc2nc(n1)NS(=O)(=O)c1cccc(c1)C(=O)N(Cc1ccc(OC(C)C)nc1)[C@H](CC(C)(C)C)CO2` [Compound 880] here?
Its activation at 10 µM is over 600%.

How did the EC50 (Table 12) turn out when `Cc1cccc(C)c1-c1cc2nc(n1)NS(=O)(=O)c1cccc(c1)C(=O)N(Cc1cncc(N(C)C(C)C)n1)[C@H](CC(C)(C)C)CO2` [Compound 881] was run?
The EC50 was under 1 µM.

And the Emax (Table 12)?
The Emax was over 60%.

`Cc1cccc(C)c1-c1cc2nc(n1)NS(=O)(=O)c1cccc(c1)C(=O)N(Cc1ccc(C3CCCCC3)nc1)[C@H](CC(C)(C)C)CO2` [Compound 882] was tested. Which activation at 10 µM (Table 12) did it give?
The activation at 10 µM was over 600%.

Which EC50 (Table 12) does the source give for `Cc1cccc(C)c1-c1cc2nc(n1)NS(=O)(=O)c1cccc(c1)C(=O)N(Cc1ccc(N3CCC(C)(C)C3)nc1)[C@H](CC(C)(C)C)CO2` [Compound 883] here?
Its EC50 is under 1 µM.

What about the Emax (Table 12) of the same compound?
The Emax was over 60%.

For `COc1cncc(CN2C(=O)c3cccc(c3)S(=O)(=O)Nc3nc(cc(-c4c(C)cccc4C)n3)OC[C@H]2CC(C)(C)C)n1` [Compound 884], which EC50 (Table 11) is on record?
The EC50 was under 1 µM.

And the Emax (Table 11)?
The Emax was over 60%.

For `Cc1cccc(C)c1-c1cc2nc(n1)NS(=O)(=O)c1cccc(c1)C(=O)N(Cc1cncc(N(C)C)n1)[C@H](CC(C)(C)C)CO2` [Compound 885], which EC50 (Table 11) is on record?
Its EC50 is under 1 µM.

What about the Emax (Table 11) of the same compound?
The Emax was over 60%.

Which EC50 (Table 11) does the source give for `Cc1cccc(C)c1-c1cc2nc(n1)NS(=O)(=O)c1cccc(c1)C(=O)N(Cc1cc(C(C)(C)C)ccn1)[C@H](CC(C)(C)C)CO2` [Compound 886] here?
Its EC50 is under 1 µM.

And the Emax (Table 11)?
The Emax was over 60%.

Which results are given for `COCCN(C)c1ccnc(CN2C(=O)c3cccc(c3)S(=O)(=O)Nc3nc(cc(-c4c(C)cccc4C)n3)OC[C@H]2CC(C)(C)C)c1` [Compound 887]?
EC50 (Table 11): < 1 µM; Emax (Table 11): > 60%

Which results are given for `Cc1cccc(C)c1-c1cc2nc(n1)NS(=O)(=O)c1cccc(c1)C(=O)N(Cc1cc(N3CCCCC3)ccn1)[C@H](CC(C)(C)C)CO2` [Compound 888]?
EC50 (Table 11): < 1 µM; Emax (Table 11): > 60%

How did the EC50 (Table 11) turn out when `Cc1cccc(C)c1-c1cc2nc(n1)NS(=O)(=O)c1cccc(c1)C(=O)N(Cc1cnc(C3CCOCC3)cn1)[C@H](CC(C)(C)C)CO2` [Compound 889] was run?
The EC50 was 1 to 3 µM.

What about the Emax (Table 11) of the same compound?
The Emax was over 60%.

Which EC50 (Table 11) does the source give for `Cc1cccc(C)c1-c1cc2nc(n1)NS(=O)(=O)c1cccc(c1)C(=O)N(Cc1cnc(C3CCCC3)cn1)[C@H](CC(C)(C)C)CO2` [Compound 890] here?
The EC50 was 3 to 30 µM.

What about the Emax (Table 11) of the same compound?
The Emax was over 60%.

Which results are given for `Cc1cccc(C)c1-c1cc2nc(n1)NS(=O)(=O)c1cccc(c1)C(=O)N(Cc1cnc(C3CCCCC3)cn1)[C@H](CC(C)(C)C)CO2` [Compound 891]?
EC50 (Table 11): 1 to 3 µM; Emax (Table 11): > 60%

With `Cc1cccc(C)c1-c1cc2nc(n1)NS(=O)(=O)c1cccc(c1)C(=O)N(Cc1cncc(C(C)C)n1)[C@H](CC(C)(C)C)CO2` [Compound 892] as the compound, how does the EC50 (Table 11) read?
Its EC50 is under 1 µM.

And the Emax (Table 11)?
The Emax was over 60%.

With `Cc1cccc(C)c1-c1cc2nc(n1)NS(=O)(=O)c1cccc(c1)C(=O)N(Cc1cnc(C(C)C)cn1)[C@H](CC(C)(C)C)CO2` [Compound 893] as the compound, how does the EC50 (Table 11) read?
Its EC50 is under 1 µM.

What about the Emax (Table 11) of the same compound?
Its Emax is over 60%.

For `Cc1cccc(C)c1-c1cc2nc(n1)NS(=O)(=O)c1cccc(c1)C(=O)N(Cc1cncc(OC(C)C)n1)[C@H](CC(C)(C)C)CO2` [Compound 894], which EC50 (Table 11) is on record?
The EC50 was under 1 µM.

What about the Emax (Table 11) of the same compound?
Its Emax is over 60%.

How did the EC50 (Table 11) turn out when `COCCN(C)c1cncc(CN2C(=O)c3cccc(c3)S(=O)(=O)Nc3nc(cc(-c4c(C)cccc4C)n3)OC[C@H]2CC(C)(C)C)n1` [Compound 895] was run?
The EC50 was under 1 µM.

What about the Emax (Table 11) of the same compound?
Its Emax is over 60%.

For `Cc1cccc(C)c1-c1cc2nc(n1)NS(=O)(=O)c1cccc(c1)C(=O)N(Cc1cncc(N3CCOCC3)n1)[C@H](CC(C)(C)C)CO2` [Compound 896], which EC50 (Table 11) is on record?
The EC50 was under 1 µM.

And the Emax (Table 11)?
The Emax was over 60%.
